The results in this text go back to PMC6934184, “Selective DNA-PKcs inhibition extends the therapeutic index of localized radiotherapy and chemotherapy” (The Journal of Clinical Investigation, 2019).

The target in the test is T1, BRSK2 (Homo sapiens, UniProt Q8IWQ3).
T1 construct: purchased Thermo Fisher Scientific (Life Technologies) SelectScreen
In words: SelectScreen LanthaScreen. Type of test: binding. The conditions noted are these: read-out: % displacement. A digest of the protocol:
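NU5455 was profiled across the SelectScreen Broad panel of kinase activity and binding assays. Z'LYTE reactions such as CSF1R ran at apparent Km ATP, while the Adapta CAMK1 assay used ATP listed as 10. Values are given as percent.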
(Time-resolved FRET reads energy transfer from a long-lived donor to a nearby acceptor.)

T1 sequence (Q8IWQ3 whole entry): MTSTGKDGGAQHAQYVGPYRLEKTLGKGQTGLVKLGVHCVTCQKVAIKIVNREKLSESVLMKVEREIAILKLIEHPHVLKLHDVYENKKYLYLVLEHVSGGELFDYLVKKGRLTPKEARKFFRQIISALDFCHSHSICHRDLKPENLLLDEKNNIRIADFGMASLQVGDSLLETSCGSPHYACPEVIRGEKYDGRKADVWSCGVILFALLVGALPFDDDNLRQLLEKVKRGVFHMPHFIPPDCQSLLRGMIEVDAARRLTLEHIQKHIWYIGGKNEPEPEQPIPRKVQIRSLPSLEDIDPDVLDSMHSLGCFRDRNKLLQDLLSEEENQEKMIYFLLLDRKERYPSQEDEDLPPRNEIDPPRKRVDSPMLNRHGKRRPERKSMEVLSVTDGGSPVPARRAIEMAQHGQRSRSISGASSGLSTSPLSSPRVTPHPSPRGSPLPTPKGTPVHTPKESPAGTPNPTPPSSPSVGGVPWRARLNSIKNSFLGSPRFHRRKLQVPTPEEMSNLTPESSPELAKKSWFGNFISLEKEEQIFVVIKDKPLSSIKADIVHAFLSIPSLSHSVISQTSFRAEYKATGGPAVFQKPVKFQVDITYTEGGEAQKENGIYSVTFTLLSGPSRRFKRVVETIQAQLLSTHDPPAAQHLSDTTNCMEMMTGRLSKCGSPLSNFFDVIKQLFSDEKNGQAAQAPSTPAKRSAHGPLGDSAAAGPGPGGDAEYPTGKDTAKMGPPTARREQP

As for `CN(C(=O)CN1CCOCC1)c1ccc2sc3c(-c4cccc5c(=O)cc(N6CC7CCC(C6)O7)oc45)cccc3c2c1` [NU5455], the inhibition at 1 µM amounted to 1.2%.
